Data reported in patent publication US20010004528A1, “USE OF 13C NUCLEAR MAGNETIC RESONANCE TO DETECT BINDING TO TARGET MOLECULES” (priority 1995, published 2001).

Molecular target: T1, FKBP (Homo sapiens, UniProt P62942)
T1 construct: made in house; host or cells: E. coli
Assay: Screening for ligands using 13C/1H NMR correlation spectra of 13C-enriched FKBP
Format: binding
Experimental: Uniformly ^13C-enriched FKBP was prepared in accordance with the procedures detailed above. […]
Two-dimensional ^13C/^1H NMR spectra were generated at 30° C. on a Bruker DRX500 NMR spectrometer equipped with a triple resonance probe and Bruker sample changer. The ^13C/^1H HSQC spectra were acquired as 64×1024 complex points using sweep widths of 3771 Hz (^13C, t1) and 8333 Hz (^1H, t2). A delay of 1 second between scans and 8 scans per free induction decay (fid) were employed in the data collection. All NMR spectra were processed and analyzed on Silicon Graphics computers.
A first two-dimensional ^13C/^1H NMR correlation spectrum was acquired for the ^13C-labeled FKBP target molecule as described above. The FKBP target was then exposed to a library mixture of test compounds. Stock solutions of the compounds were made at 100 mM and 1 M. In addition, a combination library was prepared which contained 8-10 compounds per sample at a concentration of 100 mM for each compound.
The pH of the 1 M stock solution was adjusted with acetic acid and ethanolamine so that no pH change was observed upon a 1/10dilution with a 100 mM phosphate buffered solution (pH 7.0). It is important to adjust the pH, because small changes in pH can alter the chemical shifts of the biomolecules and complicate the interpretation of the NMR data.
The compounds in the library were selected on the basis of size (molecular weight=100-300) and molecular diversity. The molecules in the collection had different shapes (for example, flat aromatic rings(s), puckered aliphatic rings(s), straight and branched chain aliphatics with single, double, or triple bonds) and diverse functional groups (for example, carboxylic acids, esters, ethers, amines, aldehydes, ketones, and various heterocyclic rings) to maximize the possibility of discovering compounds that interact with widely diverse binding sites. […]

T1 sequence (P62942 whole entry): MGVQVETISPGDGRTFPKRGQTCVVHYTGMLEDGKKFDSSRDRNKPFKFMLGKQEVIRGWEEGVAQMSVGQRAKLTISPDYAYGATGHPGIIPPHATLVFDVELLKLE

In the case of `c1ccc(-c2ncc[nH]2)cc1` [2-phenylimidazole], the “involvement of alanyl residues in binding (13C/1H correlation spectra)” value (FKBP selectively 13C labeled at alanyl residues, 2-phenylimidazole 0.25 mM) is reported as “none of the alanyl residues are involved in the binding”, the “binding site residues from chemical shift changes in 13C/1H correlation spectra” value (FKBP selectively 13C/15N/2H labeled at valinyl and leucyl residues, 2-phenylimidazole 0.25 mM) is reported as “binding is occurring at or near the Leu^97 and Val^55 residues” and the “binding to FKBP detected by chemical shift changes in 13C/1H correlation spectra” value (uniformly 13C-enriched FKBP 0.2 mM, compound about 0.25 mM, phosphate buffer pH 6.5, 30° C.) is reported as “found to bind to FKBP”.
